The source of these data is patent publication US4524068A, “Cyclodextrin inclusion complex of piperonyl butoxide” (priority 1982, dated 1985).

≈ marks a conversion by molar mass, not a printed value.

The subject of data set [1] is Sitophilus granarius. Kind of data set: 24 hours' mortality of tetrametrin and cinerin with synergist (Example 10). The note with it: for mortality at 10 mg/disk: Sitophilus granarius, 24 h, read-out: 24 hours' mortality, Paralitical and killed insects. As to the method: (§1) As insecticide tetrametrin and cinerin I are used. The insecticidal effect is tested on 2-4 weeks' old Sitophilus granarius (Corn-Weevil) imago.
(§2) Piperonyl butoxide and the complex of piperonyl butoxide and cyclodextrin are applied as described in Example 9. The ratio of pyrethroide and synergistic agent amounts to 1:4 in all cases. The efficiency of insecticidal effect is proportional to the value of the 24 hours' mortality (killing effect).

Data set [2] has as its system Sitophilus granarius. Kind of data set: Knock-down effect of tetrametrin and cinerin I with synergist (Example 10). In kind it is in vivo, Sitophilus granarius (Corn-Weevil). The note with it: pyrethroide:synergistic agent 1:4. Here is the method:
as §1, §2

The nature of another data set: physchem. To be noted: water.
Data set [3] deals with Drosophila melanogaster Meigen (vinegar midge). Kind of data set: 24 hours' mortality of tetrametrin on midges pre-fed with piperonyl butoxide or its complex (Example 8). In kind it is in vivo. To be noted: pre-fed with synergist. Here is the method: The emulsion and suspension also contain 5% of sucrose.
Next day the 24 hours' mortality is determined.

The conditions of data set [4]: cited from earlier work.

As for `C/C=C\CC1=C(C)[C@@H](OC(=O)[C@@H]2[C@@H](C=C(C)C)C2(C)C)CC1=O` [cinerin], the mortality at 10 mg/disk in the data set with Sitophilus granarius [1] is 31%. In the data set with Sitophilus granarius [1] (pyrethroide dose 1.250 mg/disk, pyrethroid:synergist 1:4), the “24 hours' mortality; Paralitical and killed insects” value was determined as 0%. For the same compound, the Knock-down effect in the data set with Sitophilus granarius [2] (90 minutes) was found to be 6; with Sitophilus granarius [2] (170 minutes), 9; in the data set on Sitophilus granarius [2] (210 minutes), 8; with Sitophilus granarius [2] (300 minutes), 2.

As for `CC(C)=CC1C(C(=O)OCN2C(=O)C3=C(CCCC3)C2=O)C1(C)C` (centres unmarked) [tetrametrin], the mortality at 10 mg/disk with Sitophilus granarius [1] amounted to 41%. Further, the Knock-down effect in the data set with Sitophilus granarius [2] (90 minutes) is given as 0; in the data set on Sitophilus granarius [2] (170 minutes) it was 9; in the data set with Sitophilus granarius [2] (210 minutes), 9; in the data set on Sitophilus granarius [2] (300 minutes), 6.

On to `CCCCOCCOCCOCc1cc2c(cc1CCC)OCO2` [piperonyl butoxide, 5-{[2-(2-butoxy-ethoxy)-ethoxy]-methyl}-6-propyl-1,3-benzodioxole], for which the solubility at 1 h in the data set “physchem” stood at 66 µg/mL (≈ 195 µM). The “Mortality (24 hours mortality; killing effect)” value in data set [3] (tetrametrin dose 0.078 mg/disk) worked out at 0%; in data set [3] (tetrametrin dose 0.156 mg/disk), 8%; in data set [3] (tetrametrin dose 0.313 mg/disk), 34%; in data set [3] (tetrametrin dose 0.625 mg/disk), 48%; in data set [3] (tetrametrin dose 1.250 mg/disk), 100%; in data set [3] (tetrametrin dose 5.000 mg/disk), 100%. In addition, the “solubility in organic solvents” value in data set [4] (organic solvents) was “soluble in organic solvents”. In addition, the solubility in water entry in data set [4] (water) is recorded as “substantially insoluble in water”.

By mortality is commonly meant the share of the test organisms that died. A word on the solubility: it is how much of the substance goes into solution per volume. The low end stands for a poorly soluble substance, the high end for a readily soluble substance.
